Reference: ChEMBL document CHEMBL1201862, “PubChem BioAssay data set” (2004)
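Method: 48-hour compound exposure of cells in 96-well plates, five concentrations, linear interpolation of endpoints. GI50 = concentration required for 50% inhibition of growth.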 Active and inactive are the calls of the source. Rule as the data show it: active = GI50 up to about 1.1 µM and inactive = higher.

Tests used:
Test in all cases: growth of human tumour cells (NCI), 48 h
A549 = tested on: A549
ACHN = tested on: ACHN
CAKI-1 = tested on: CAKI-1
HCC 2998 = tested on: HCC 2998
HCT-116 = tested on: HCT-116
HT-29 = tested on: HT-29
Malme-3M = tested on: Malme-3M
OVCAR-8 = tested on: OVCAR-8
RXF 393 = tested on: RXF 393
SF-268 = tested on: SF-268
SF-295 = tested on: SF-295
SN12C = tested on: SN12C
SNB-19 = tested on: SNB-19
SNB-75 = tested on: SNB-75
SR = tested on: SR
TK-10 = tested on: TK-10
U-251 = tested on: U-251
HOP-92 = tested on: HOP-92
NCI-H522 = tested on: NCI-H522

Measured: GI50

N#Cc1c(CC(=O)O)cc(=O)n2c1[nH]c1ccccc12
inactive: A549 > 100 µM | ACHN > 100 µM | CAKI-1 > 100 µM | HCC 2998 > 100 µM | HCT-116 > 100 µM | HT-29 > 100 µM | Malme-3M > 100 µM | OVCAR-8 > 100 µM | RXF 393 > 100 µM | SF-268 > 100 µM | SF-295 > 100 µM | SN12C > 100 µM | SNB-19 > 100 µM | SNB-75 > 100 µM | SR > 100 µM | TK-10 > 100 µM | U-251 > 100 µM

CCCCCN(CCCCC)C(=O)[C@@H](CCC(=O)O)NC(=O)c1cc2ccccc2[nH]1
inactive: A549 39.3 µM | ACHN 30.5 µM | CAKI-1 25.1 µM | HCC 2998 34 µM | HCT-116 17.9 µM | HOP-92 25.6 µM | HT-29 46.6 µM | Malme-3M 35.4 µM | NCI-H522 13.5 µM | OVCAR-8 52.8 µM | RXF 393 1.99 µM | SF-268 24.5 µM | SF-295 33.9 µM | SN12C 43.4 µM | SNB-19 34.9 µM | SNB-75 12.3 µM | TK-10 46.6 µM | U-251 29.1 µM

O=C1CNC(=O)c2[nH]cnc2N1
inactive: A549 > 100 µM | ACHN > 100 µM | HCC 2998 > 100 µM | HT-29 > 100 µM | Malme-3M > 100 µM | OVCAR-8 > 100 µM | RXF 393 > 100 µM | SF-268 > 100 µM | SF-295 > 100 µM | SN12C > 100 µM | SNB-19 > 100 µM | SNB-75 > 100 µM | SR > 100 µM | TK-10 > 100 µM | U-251 > 100 µM

CC(=O)Nc1[nH]c(=O)[nH]c(=O)c1N(C(C)=O)C(C)=O
inactive: A549 > 100 µM | ACHN > 100 µM | CAKI-1 > 100 µM | HCC 2998 > 100 µM | HCT-116 > 100 µM | HOP-92 > 100 µM | HT-29 > 100 µM | Malme-3M > 100 µM | OVCAR-8 > 100 µM | RXF 393 > 100 µM | SF-268 > 100 µM | SF-295 > 100 µM | SN12C > 100 µM | SNB-19 > 100 µM | U-251 > 100 µM

CN1C(c2ccccc2)CS(=O)(=O)CS1(=O)=O (configuration not stated)
inactive: A549 > 100 µM | ACHN > 100 µM | CAKI-1 > 100 µM | HCC 2998 > 100 µM | HCT-116 > 100 µM | HT-29 > 100 µM | Malme-3M > 100 µM | OVCAR-8 > 100 µM | RXF 393 > 100 µM | SF-268 > 100 µM | SF-295 > 100 µM | SN12C > 100 µM | SNB-19 > 100 µM | SNB-75 > 100 µM | TK-10 > 100 µM | U-251 > 100 µM

O=C1c2ccccc2C(=O)c2cc3c(cc21)C[S+]([O-])C3
inactive: A549 > 100 µM | ACHN > 100 µM | CAKI-1 > 100 µM | HCC 2998 > 100 µM | HOP-92 > 100 µM | HT-29 > 100 µM | Malme-3M > 100 µM | NCI-H522 > 100 µM | OVCAR-8 > 100 µM | RXF 393 > 100 µM | SF-268 > 100 µM | SF-295 > 100 µM | SN12C 20 µM | SNB-19 > 100 µM | SNB-75 > 100 µM | TK-10 > 100 µM | U-251 > 100 µM

CS(=O)(=O)OCCN1CCN(C(=O)c2cccc3c(Nc4ccc(S(=O)(=O)N=C(N)N)cc4)c4ccccc4nc23)CC1
inactive: A549 > 100 µM | ACHN > 100 µM | CAKI-1 > 100 µM | HCC 2998 > 100 µM | HCT-116 > 100 µM | HOP-92 > 100 µM | HT-29 > 100 µM | Malme-3M > 100 µM | OVCAR-8 > 100 µM | RXF 393 > 100 µM | SF-268 > 100 µM | SF-295 > 100 µM | SN12C > 100 µM | SNB-19 > 100 µM | SNB-75 > 100 µM | TK-10 > 100 µM | U-251 > 100 µM

Clc1cc(Cl)cc(Nc2nc3ccccc3nc2-c2cccs2)c1
inactive: A549 38.5 µM | ACHN 19.4 µM | HCC 2998 99.3 µM | HCT-116 18.5 µM | HOP-92 12.4 µM | HT-29 14 µM | Malme-3M 39 µM | OVCAR-8 13.3 µM | RXF 393 17.1 µM | SF-268 34 µM | SF-295 22.1 µM | SN12C 54.3 µM | SNB-19 > 10 µM | SNB-75 32.4 µM | SR 51.2 µM | TK-10 37.9 µM | U-251 > 10 µM
